In patent US9469615B2, “Quinoxalines and AZA-quinoxalines as CRTH2 receptor modulators” (Merck Sharp & Dohme Corp., priority 2010, dated 2016) one finds Ki data, which are given here for 29 compounds.

pKi: −log10 of the molar value.

The target of one test is T1, hCRTH2 (Homo sapiens, UniProt Q9Y5Y4).
T1 construct: expressed in transfected cells; host or cells: HEK (human embryonic kidney) cells expressing hCRTH2; membrane preparation
T1 sequence (Q9Y5Y4 1-395): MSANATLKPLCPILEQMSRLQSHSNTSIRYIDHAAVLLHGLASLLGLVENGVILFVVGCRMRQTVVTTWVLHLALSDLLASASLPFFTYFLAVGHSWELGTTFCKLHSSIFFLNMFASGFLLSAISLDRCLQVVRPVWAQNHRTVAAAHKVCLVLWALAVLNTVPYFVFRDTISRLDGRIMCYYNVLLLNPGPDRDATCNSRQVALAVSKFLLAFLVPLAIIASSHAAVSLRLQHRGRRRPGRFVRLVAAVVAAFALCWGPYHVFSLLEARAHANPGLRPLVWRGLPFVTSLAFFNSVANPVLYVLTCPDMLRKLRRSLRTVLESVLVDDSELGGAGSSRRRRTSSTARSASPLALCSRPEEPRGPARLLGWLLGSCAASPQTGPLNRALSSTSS
As to the kind of experiment: Radioligand binding assay ([3H]PGD2 competition, HEK-hCRTH2 membranes). The following applies: [3H]PGD2 binding, values in text. The gist of the method:
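Membranes (8-20 μg protein) from HEK-hCRTH2 cells were incubated 60 min at room temperature with 3.0 nM [3H]PGD2 in 50 mM Tris-HCl pH 7.4, 1 mM EDTA, 2 mM MnCl2, 1% DMSO. Non-specific binding defined with 10 μM PGD2. Bound radioactivity counted after filtration.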
With `CC(c1ccon1)N(C)C(=O)c1ccc2nc(-c3ccc(Cl)cc3)c(CCCCC(=O)O)nc2c1` (stereo not drawn) [compound 657, 5-(3-(4-chlorophenyl)-7-((1-(isoxazol-3-yl)ethyl)(methyl)carbamoyl)quinoxalin-2-yl) pentanoic acid], the pKi is 7.43.

The test is the same for the next values; noted with them: [3H]PGD2 competition, Table B.
`O=C(O)CCCCc1nc2cc(C(=O)N3CCCCC3c3nccs3)ccc2nc1-c1ccc(Cl)cc1` (stereo not drawn) [compound 654, 5-(3-(4-chlorophenyl)-7-(2-(thiazol-2-yl)piperidine-1-carbonyl)quinoxalin-2-yl)pentanoic acid] had a pKi of 6.70 to 7.70.
In turn, `Cc1csc(C(C)N(C)C(=O)c2ccc3nc(-c4ccc(Cl)cc4)c(CCCCC(=O)O)nc3c2)n1` (stereo not drawn) [compound 655, 5-(3-(4-chlorophenyl)-7-(methyl(1-(4-methylthiazol-2-yl)ethyl)carbamoyl)quinoxalin-2-yl)pentanoic acid] had a pKi of 7.70 to 8.68.
The same measure, in the same setting: next, `O=C(O)CCCCc1nc2cc(C(=O)N3CCCC34CCc3cc(F)ccc34)ccc2nc1-c1ccc(Cl)cc1` (stereo not drawn) [compound 656, 5-(3-(4-chlorophenyl)-7-(5-fluoro-2,3-dihydrospiro [indene-1,2′-pyrrolidin]-1′-ylcarbonyl)quinoxalin-2-yl)pentanoic acid]: 7.70 to 8.68.
The same measure, in the same setting: next, `CC(c1ccon1)N(C)C(=O)c1ccc2nc(-c3ccc(Cl)cc3)c(CCCCC(=O)O)nc2c1` (stereo not drawn) [compound 657, 5-(3-(4-chlorophenyl)-7-((1-(isoxazol-3-yl)ethyl)(methyl)carbamoyl)quinoxalin-2-yl) pentanoic acid]: 6.70 to 7.70.
The same measure, in the same setting: next, `O=C(O)CCCCc1nc2cc(C(=O)N3CCCC34CCc3ccncc34)ccc2nc1-c1ccc(Cl)cc1` (stereo not drawn) [compound 658, 5-(3-(4-chloro-phenyl)-7-(5,6-dihydrospiro [cyclopenta[c]pyridine-7,2′-pyrrolidin]-1′-ylcarbonyl)quinoxalin-2-yl)pentanoic acid]: 6.70 to 7.70.
As for `O=C(O)CCCCc1nc2cc(C(=O)N3CCCC3c3nccs3)ccc2nc1-c1ccc(Cl)cc1` (stereo not drawn) [compound 659, 5-(3-(4-chlorophenyl)-7-(2-(thiazol-2-yl)pyrrolidine-1-carbonyl)quinoxalin-2-yl)pentanoic acid], the pKi is 6.70 to 7.70.
On the same count and under the same terms, next, `Cc1noc(C2CCCCN2C(=O)c2ccc3nc(-c4ccc(Cl)cc4)c(CCCCC(=O)O)nc3c2)n1` (stereo not drawn) [compound 660, 5-(3-(4-chlorophenyl)-7-(2-(3-methyl-1,2,4-oxadiazol-5-yl)piperidine-1-carbonyl)quinoxalin-2-yl)pentanoic acid]: 6.70 to 7.70; `O=C(O)CCCCc1nc2cc(C(=O)N3CCOC[C@H]3c3ccccc3)ccc2nc1-c1ccc(Cl)cc1` [compound 661, (R)-5-(3-(4-chlorophenyl)-7-(3-phenylmorphohne-4-carbonyl)quinoxalin-2-yl)pentanoic acid]: 7.70 to 8.68; `O=C(O)CCCCc1nc2cc(C(=O)N3CCCC3c3ccccn3)ccc2nc1-c1ccc(Cl)cc1` (stereo not drawn) [compound 662, 5-(3-(4-chlorophenyl)-7-(2-(pyridin-2-yl)pyrrolidine-1-carbonyl)quinoxalin-2-yl)pentanoic acid]: 6.70 to 7.70.
Same read-out and setting: in the case of `CC1Cc2ccccc2CCN1C(=O)c1ccc2nc(-c3ccc(Cl)cc3)c(CCCCC(=O)O)nc2c1` (stereo not drawn) [compound 663, 5-(3-(4-chlorophenyl)-7-(2-methyl-2,3,4,5-tetrahydro-1H-benzo[d]azepine-3-carbonyl)quinoxalin-2-yl)pentanoic acid] it was 7.70 to 8.68; in that of `Cc1ccc(CN2CCN(C(=O)c3ccc4nc(-c5ccc(Cl)cc5)c(CCCCC(=O)O)nc4c3)CC2)cc1` [compound 664, 5-(3-(4-chlorophenyl)-7-(4-(4-methylbenzyl)piperazine-1-carbonyl)quinoxalin-2-yl)pentanoic acid], 7.70 to 8.68; in that of `Cc1ccc(N2CCN(C(=O)c3ccc4nc(-c5ccc(Cl)cc5)c(CCCCC(=O)O)nc4c3)CC2)cc1` [compound 665, 5-(3-(4-chlorophenyl)-7-(4-(p-tolyl)piperazine-1-carbonyl)quinoxalin-2-yl)pentanoic acid], 7.70 to 8.68.
`CN1CCN(C(=O)c2ccc3nc(-c4ccc(Cl)cc4)c(CCCCC(=O)O)nc3c2)C(c2ccccc2)C1` (stereo not drawn) [compound 666, 5-(3-(4-chlorophenyl)-7-(4-methyl-2-phenylpiperazine-1-carbonyl)quinoxalin-2-yl)pentanoic acid] had a pKi of 7.70 to 8.68.
For the compound `O=C(O)CCCCc1nc2cc(C(=O)N3CCN(Cc4cccc(F)c4)CC3)ccc2nc1-c1ccc(Cl)cc1` [compound 667, 5-(3-(4-chlorophenyl)-7-(4-(3-fluorobenzyl)piperazine-1-carbonyl)quinoxalin-2-yl)pentanoic acid], the pKi was 7.70 to 8.68.
Consider `O=C(O)CCCCc1nc2cc(C(=O)N3CCn4cc(C(F)(F)F)nc4C3)ccc2nc1-c1ccc(Cl)cc1` [compound 668, 5-(3-(4-chlorophertyl)-7-(2-(trifluoromethyl)-5,6,7,8-tetrahydroimidazo[1,2-a]pyrazine-7-carbonyl)quinoxalin-2-yl)pentanoic acid], for which the pKi is 6.70 to 7.70.
Same read-out and setting: next, `O=C(O)CCCCc1nc2cc(C(=O)N3CCN(c4ccc(Cl)cn4)CC3)ccc2nc1-c1ccc(Cl)cc1` [compound 669, 5-(3-(4-chlorophenyl)-7-(4-(5-chloropyridin-2-yl)piperazine-1-carbonyl)quinoxalin-2-yl)pentanoic acid]: 7.70 to 8.68; `Cc1nc(CN2CCN(C(=O)c3ccc4nc(-c5ccc(Cl)cc5)c(CCCCC(=O)O)nc4c3)CC2)cs1` [compound 670, 5-(3-(4-chlorophenyl)-7-(4-((2-methylthiazol-4-yl)methyl)piperazine-1-carbonyl)quinoxalin-2-yl)pentanoic acid]: 7.70 to 8.68.
`Cn1cc(N2CCN(C(=O)c3ccc4nc(-c5ccc(Cl)cc5)c(CCCCC(=O)O)nc4c3)CC2)cn1` [compound 671, 5-(3-(4-chlorophenyl)-7-(4-(1-methyl-1H-pyrazol-4-yl)piperazine-1-carbonyl)quinoxalin-2-yl)pentanoic acid] showed a pKi of 6.70 to 7.70.
Still for that read-out and setting: in the case of `C[C@@H]1CN(C(=O)c2ccc3nc(-c4ccc(Cl)cc4)c(CCCCC(=O)O)nc3c2)[C@@H](C)CN1c1ccccc1` [compound 672, 5-(3-(4-chlorophenyl)-7-((2S,5R)-2,5-dimethyl-4-phenylpiperazine-1-carbonyl)quinoxalin-2-yl)pentanoic acid] it was 6.70 to 7.70; in that of `CCc1nnc2n1CCN(C(=O)c1ccc3nc(-c4ccc(Cl)cc4)c(CCCCC(=O)O)nc3c1)C2` [compound 673, 5-(3-(4-chlorophenyl)-7-(3-ethyl-5,6,7,8-tetrahydro-[1,2,4]triazolo[4,3-a]pyrazine-7-carbonyl)quinoxalin-2-yl)pentanoic acid], 6.70 to 7.70.
`CN1CCN(C(=O)c2ccc3nc(-c4ccc(Cl)cc4)c(CCCCC(=O)O)nc3c2)CC1c1ccccc1` (stereo not drawn) [compound 674, 5-(3-(4-chlorophenyl)-7-(4-methyl-3-phenylpiperazine-1-carbonyl)quinoxalin-2-yl)pentanoic acid] had a pKi of 7.70 to 8.68.
Still for that read-out and setting: next, `Cc1nonc1N1CCN(C(=O)c2ccc3nc(-c4ccc(Cl)cc4)c(CCCCC(=O)O)nc3c2)CC1` [compound 675, 5-(3-(4-chlorophenyl)-7-(4-(4-methyl-1,2,5-oxadiazol-3-yl)piperazine-1-carbonyl)quinoxalin-2-yl)pentanoic acid]: 7.70 to 8.68; `O=C(O)CCCCc1nc2cc(C(=O)N3CCN(c4ncccc4Cl)CC3)ccc2nc1-c1ccc(Cl)cc1` [compound 676, 5-(3-(4-chlorophenyl)-7-(4-(3-chloropyridin-2-yl)piperazine-1-carbonyl)quinoxalin-2-yl)pentanoic acid]: 7.70 to 8.68; `O=C(O)CCCCc1nc2cc(C(=O)N3C[C@@H]4C[C@H]3CN4c3cccc(F)c3)ccc2nc1-c1ccc(Cl)cc1` [compound 677, 5-(3-(4-chlorophenyl)-7-((1S,4S)-5-(3-fluorophenyl)-2,5-diazabicyclo[2.2.1]heptane-2-carbonyl)quinoxalin-2-yl)pentanoic acid]: 7.70 to 8.68.
Still for that read-out and setting: in the case of `O=C(O)CCCCc1nc2cc(C(=O)N3CCN(C4CCCCC4)C(=O)C3)ccc2nc1-c1ccc(Cl)cc1` [compound 678, 5-(3-(4-chlorophenyl)-7-(4-cyclohexyl-3-oxo-piperazine-1-carbonyl)quinoxalin-2-yl)pentanoic acid] it was 7.70 to 8.68.
On to `O=C(O)CCCCc1nc2cc(C(=O)N3CCN(c4cccnc4)CC3)ccc2nc1-c1ccc(Cl)cc1` [compound 679, 5-(3-(4-chlorophenyl)-7-(4-(pyridin-3-y)piperazine-1-carbonyl)quinoxalin-2-yl)pentanoic acid], for which the pKi is 7.70 to 8.68.
On the same count and under the same terms, next, `O=C(O)CCCCc1nc2cc(C(=O)N3C[C@@H]4C[C@H]3CN4c3ccc(F)cc3)ccc2nc1-c1ccc(Cl)cc1` [compound 680, 5-(3-(4-chlorophenyl)-7-((1S,4S)-5-(4-fluorophenyl)-2,5-diazabicyclo[2.2.1]heptane-2-carbonyl)quinoxalin-2-yl)pentanoic acid]: 7.70 to 8.68; `Cc1cnc(C)c(N2CCN(C(=O)c3ccc4nc(-c5ccc(Cl)cc5)c(CCCCC(=O)O)nc4c3)CC2)n1` [compound 681, 5-(3-(4-chlorophenyl)-7-(4-(3,6-dimethylpyrazin-2-yl)piperazine-1-carbonyl)quinoxalin-2-yl)pentanoic acid]: 7.70 to 8.68.
The same measure, in the same setting: in the case of `O=C(O)CCCCc1nc2cc(C(=O)N3CCN(Cc4ccncc4)CC3)ccc2nc1-c1ccc(Cl)cc1` [compound 682, 5-(3-(4-chlorophenyl)-7-(4-(pyridin-4-ylmethyl)piperazine-1-carbonyl)quinoxalin-2-yl)pentanoic acid] it was 6.70 to 7.70.

For orientation: pKi means the Ki on a negative log10 scale, so that one unit is a factor of ten. Read a high pKi as a low Ki.
